We go through 2 compounds from patent US6602908B2, “Suppression of carcinoma using high purity conjugated fatty acid” (priority 1999, dated 2003).

Assay [1] concerns Carcinogenesis. The following applies: in vivo; cited from earlier work.
Assay [2] deals with mammary adenocarcinomas. In words: Development of mammary tumors in laboratory animals fed dietary CLA. In kind it is in vivo. As to conditions: for reduction in the total number of mammary adenocarcinomas: laboratory animals. The text has this: The synthetically prepared conjugated linoleic acid (CLA) is an effective agent in inhibiting the development of mammary tumors. Laboratory animals fed a diet comprising 0.5%, 1%, or 1.5% by weight conjugated linoleic acid (CLA) have been seen to have a reduction in the total number of mammary adenocarcinomas, in the range of about 30%, 55%, and 60%, respectively. […] Final tumor incidence and cumulative tumor weights are diminished with the administration of a therapeutically effective amount of the purified conjugated linoleic acid (CLA).

For assay [3], the system named is breast cancer. As to conditions: mice; cited from earlier work.
The mark [4] stands for this setting: therapeutically effective amount of purified CLA.

`CCCCC/C=C\C/C=C\CCCCCCCC(=O)O` [Linoleic acid, 9-cis, 12-cis octadecadienoic acid]: in assay [1], the “effect on Carcinogenesis” value was “enhance Carcinogenesis”.
For conjugated linoleic acid [CLA], in assay [2] (dietary CLA between 0.1 and 0.5% by weight), the “inhibition of mammary cancer and protection against subsequent tumor occurrence” value is on record as “dose-dependent inhibition”. For the same compound, the figures for the “reduction in the total number of mammary adenocarcinomas” value in assay [2] (diet comprising 0.5% by weight CLA), in assay [2] (diet comprising 1% by weight CLA) and in assay [2] (diet comprising 1.5% by weight CLA) were “about 30%”, roughly 55% and roughly 60%, respectively. Further, in assay [2] (setting [4]), the cumulative tumor weights result is on record as “diminished”. In assay [2] (setting [4]), the final tumor incidence entry was “diminished”. In assay [3], the “effect on breast cancer” value is recorded as “preventive effects”.
